Assay results published in patent publication US9789082B2, “Somatostatin receptor subtype 4 (SSTR4) agonists” (Centrexion Therapeutics Corporation, priority 2013, dated 2017).
pEC50, pKi: −log10 of the molar value. Where two headings read alike, the source gives them in different places.

Assays:
human SSTR5 = human SSTR5 (Homo sapiens (Human), UniProt P35346); assay: Radioligand binding assay, CHO cell membranes expressing recombinant human SSTR5
Source text: (§1) Radioligand Binding Assays
(§2) Method Description for Binding Assays with Human Somatostatin Receptors by Use of CHO Cell Membranes Expressing Recombinant Human SSTR1 or Human SSTR2 or Human SSTR3 or Human SSTR4 or Human SSTR5
(§3) Receptor binding assays refer to a technique in which labeled receptor ligands are used to detect binding to a receptor. In competition experiments test compounds, which are not labeled, compete with the binding side of a labeled ligand. The displacement of the labeled ligand by the test compound leads to a decreased signal.
(§4) For the binding experiments 200 μL of membrane homogenate from one of the following protein amounts is used: hSSTR1 (40 μg/well); hSSTR2 (25 μg/well); hSSTR3 (1.5 μg/well); hSSTR4 (0.5 μg/well); hSSTR5 (25 μg/well). […] The incubation is terminated by filtration with ice cold NaCl 0.9% through polyethyleneimine treated (0.3%) GF/B glass fiber filters using a cell harvester. The protein-bound radioactivity is measured in a suitable reader. The non-specific binding is defined as radioactivity bound in the presence of 1 μM Somatostatin-14 during the incubation period.
(§5) The analysis of the concentration-binding curves is performed by computer-assisted nonlinear least square curve fitting method using the model of one receptor binding site.
(§6) Selectivity data was obtained with the aid of the above described radioligand binding assays.

[1] = Metabolic stability in pooled human liver microsomes (half-life); type: in vitro ADME; settings: pooled human liver microsomes, pH 7.6, 37° C., 1 μM test compound, read-out: Half-life t1/2
Method: The metabolic stability of the compounds according to the invention may be investigated as follows:
The metabolic degradation of the test compound is assayed at 37° C. with pooled human liver microsomes. The final incubation volume of 100 μl per time point contains TRIS buffer pH 7.6 at room temperature (0.1 M), magnesium chloride (5 mM), microsomal protein (1 mg/mL) and the test compound at a final concentration of 1 μM. Following a short preincubation period at 37° C., the reactions are initiated by addition of beta-nicotinamide adenine dinucleotide phosphate, reduced form (NADPH, 1 mM), and terminated by transferring an aliquot into solvent after different time points. After centrifugation (10000 g, 5 min), an aliquot of the supernatant is assayed by LC-MS/MS for the amount of parent compound. The half-life is determined by the slope of the semi-logarithmic plot of the concentration-time profile.

human SSTR4 = human SSTR4 (Homo sapiens (Human), UniProt P31391); assay: Radioligand binding assay, CHO cell membranes expressing recombinant human SSTR4
human SSTR4, sequence (P31391 whole entry): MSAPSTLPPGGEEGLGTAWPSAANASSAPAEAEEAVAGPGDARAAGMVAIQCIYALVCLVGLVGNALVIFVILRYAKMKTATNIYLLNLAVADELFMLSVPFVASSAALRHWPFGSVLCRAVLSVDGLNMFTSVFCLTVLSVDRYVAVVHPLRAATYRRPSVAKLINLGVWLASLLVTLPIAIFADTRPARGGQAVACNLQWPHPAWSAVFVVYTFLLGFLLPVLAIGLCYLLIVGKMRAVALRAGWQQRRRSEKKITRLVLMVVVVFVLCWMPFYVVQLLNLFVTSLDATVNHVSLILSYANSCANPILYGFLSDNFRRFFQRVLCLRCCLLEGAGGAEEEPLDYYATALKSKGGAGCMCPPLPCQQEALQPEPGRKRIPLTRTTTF
Source text: as §1, §2, §3, §4, §5, §6

human SSTR1 = human SSTR1 (Homo sapiens (Human), UniProt P30872); assay: Radioligand binding assay, CHO cell membranes expressing recombinant human SSTR1
human SSTR1, sequence (P30872 whole entry): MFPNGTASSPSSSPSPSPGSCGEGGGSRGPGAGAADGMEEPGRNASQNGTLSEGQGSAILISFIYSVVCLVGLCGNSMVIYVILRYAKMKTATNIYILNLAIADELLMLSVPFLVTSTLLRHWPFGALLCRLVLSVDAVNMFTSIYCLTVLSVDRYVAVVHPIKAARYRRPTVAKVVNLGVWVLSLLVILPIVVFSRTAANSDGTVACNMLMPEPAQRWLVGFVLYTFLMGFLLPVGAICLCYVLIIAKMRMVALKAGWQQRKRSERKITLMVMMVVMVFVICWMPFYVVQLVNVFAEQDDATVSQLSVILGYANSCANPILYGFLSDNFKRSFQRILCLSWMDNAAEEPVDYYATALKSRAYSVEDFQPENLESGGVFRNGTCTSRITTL
Source text: as §1, §2, §3, §4, §5, §6

human SSTR2 = human SSTR2 (Homo sapiens (Human), UniProt P30874); assay: Radioligand binding assay, CHO cell membranes expressing recombinant human SSTR2
human SSTR2, sequence (P30874 whole entry): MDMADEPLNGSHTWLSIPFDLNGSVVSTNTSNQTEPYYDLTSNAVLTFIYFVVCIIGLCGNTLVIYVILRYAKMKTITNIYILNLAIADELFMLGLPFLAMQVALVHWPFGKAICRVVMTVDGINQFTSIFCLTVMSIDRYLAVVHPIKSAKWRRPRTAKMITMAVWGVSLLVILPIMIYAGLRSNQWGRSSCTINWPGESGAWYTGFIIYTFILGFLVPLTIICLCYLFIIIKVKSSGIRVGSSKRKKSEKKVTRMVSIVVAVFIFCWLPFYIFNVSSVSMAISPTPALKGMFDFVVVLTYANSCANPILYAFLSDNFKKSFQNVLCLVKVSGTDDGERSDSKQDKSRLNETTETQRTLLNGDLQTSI
Source text: as §1, §2, §3, §4, §5, §6

human SSTR3 = human SSTR3 (Homo sapiens (Human), UniProt P32745); assay: Radioligand binding assay, CHO cell membranes expressing recombinant human SSTR3
human SSTR3, sequence (P32745 whole entry): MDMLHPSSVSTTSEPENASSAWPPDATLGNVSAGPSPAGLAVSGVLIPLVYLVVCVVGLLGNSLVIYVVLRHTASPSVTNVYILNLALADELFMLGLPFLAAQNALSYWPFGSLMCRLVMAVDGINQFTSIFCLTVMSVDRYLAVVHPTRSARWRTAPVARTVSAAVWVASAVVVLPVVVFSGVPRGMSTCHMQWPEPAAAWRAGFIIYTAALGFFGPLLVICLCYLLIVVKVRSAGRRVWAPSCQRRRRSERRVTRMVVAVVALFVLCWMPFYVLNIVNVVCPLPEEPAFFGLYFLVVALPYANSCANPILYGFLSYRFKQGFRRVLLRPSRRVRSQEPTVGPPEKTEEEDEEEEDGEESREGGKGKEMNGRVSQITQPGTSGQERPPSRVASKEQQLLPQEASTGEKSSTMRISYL
Source text: as §1, §2, §3, §4, §5, §6

[2] = biological target: human Somatostatin 4 receptor (SSTR4) (Homo sapiens (Human), UniProt P31391); assay: cAMP assay with human somatostatin 4 receptor (hSSTR4 expressing H4 cells); type: cell-based
human Somatostatin 4 receptor (SSTR4), sequence (P31391 whole entry): as the sequence (P31391 whole entry) above

[3] = cAMP assay, read-out: SSTR4 agonism EC50

human SSTR5, sequence (P35346 whole entry): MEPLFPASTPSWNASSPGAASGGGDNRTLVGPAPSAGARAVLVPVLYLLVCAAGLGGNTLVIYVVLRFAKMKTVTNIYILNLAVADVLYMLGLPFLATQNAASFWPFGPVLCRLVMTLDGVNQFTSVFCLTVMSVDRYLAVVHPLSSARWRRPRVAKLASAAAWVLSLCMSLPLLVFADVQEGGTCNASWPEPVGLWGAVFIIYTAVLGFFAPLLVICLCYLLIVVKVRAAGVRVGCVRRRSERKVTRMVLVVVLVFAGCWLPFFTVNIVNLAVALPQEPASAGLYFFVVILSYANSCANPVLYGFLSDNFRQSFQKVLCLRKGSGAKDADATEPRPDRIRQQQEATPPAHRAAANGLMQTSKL

`Cc1nc(C(C)(C)NC(=O)[C@H]2[C@@H]3CNC[C@@H]32)c2cccc(C)c2n1` [Example 148] gave a pKi (human SSTR5) of under 5.01, a half-life at 1 μM [1] of over 2.17 h and a pKi (human SSTR4) of 7.49. It also gave a pKi (human SSTR1) of 5.18, a pKi (human SSTR2) of under 5.02 and a pKi (human SSTR3) of under 5.06. It also gave a pEC50 ([2]; SSTR4 agonism EC50, cAMP assay) of 8.96.
`Cc1cccn2c(C(C)(C)NC(=O)[C@H]3[C@@H]4CNC[C@@H]43)nc(C3CC3)c12` [Example 128] gave a pKi (human SSTR5) of under 5.01, a half-life at 1 μM [1] of over 2.17 h and a pKi (human SSTR4) of 8.12. For the same compound, the pKi (human SSTR1) was 5.96, the pKi (human SSTR2) was under 5.02 and the pKi (human SSTR3) was 5.21. The pEC50 [2, 3] was 9.40.
With `Cc1cccnc1OCC(C)(C)NC(=O)[C@H]1[C@@H]2CNC[C@@H]21` [Example 47] the pKi (human SSTR5) was under 5.01, the half-life at 1 μM [1] was over 2.17 h and the pKi (human SSTR4) was 7.40. For the same compound, the pKi (human SSTR1) was under 5.04, the pKi (human SSTR2) was under 5.02 and the pKi (human SSTR3) was under 5.06. It also gave a pEC50 [2, 3] of 8.43.
Compound `CC(C)(NC(=O)[C@H]1[C@@H]2CNC[C@@H]21)c1nccc2ccccc12.Cl` [Example 24] has a pKi (human SSTR5) of under 5.01, a half-life at 1 μM [1] of over 2.17 h and a pKi (human SSTR4) of 8.54. The pKi (human SSTR1) was 5.55, the pKi (human SSTR2) was under 5.02 and the pKi (human SSTR3) was under 5.06. It also gave a pEC50 ([2]; SSTR4 agonism EC50, cAMP assay) of 9.30.
In the case of `Cc1ccccc1OCC(C)(C)NC(=O)[C@H]1[C@@H]2CNC[C@@H]21.Cl` [Example 40], the pKi (human SSTR5) was under 5.01, the half-life at 1 μM [1] was over 2.17 h and the pKi (human SSTR4) was 7.43. For the same compound, the pKi (human SSTR1) was under 5.01, the pKi (human SSTR2) was under 5.02 and the pKi (human SSTR3) was under 5.06. The pEC50 [2, 3] was 8.30.
Compound `CC(C)(COc1cnccc1C(F)(F)F)NC(=O)[C@H]1[C@@H]2CNC[C@@H]21` [Example 63] has a pKi (human SSTR5) of under 5.09, a half-life at 1 μM [1] of over 2.17 h and a pKi (human SSTR4) of 7.16. It also gave a pKi (human SSTR1) of under 5.12, a pKi (human SSTR2) of under 5.10 and a pKi (human SSTR3) of under 5.15. For the same compound, the pEC50 ([2]; SSTR4 agonism EC50, cAMP assay) was 8.39.
Compound `Cc1nc(C(C)(C)NC(=O)[C@H]2[C@@H]3CNC[C@@H]32)c2ccccc2n1` [Example 138] has a pKi (human SSTR5) of under 5.01, a half-life at 1 μM [1] of over 2.17 h and a pKi (human SSTR4) of 7.15. For the same compound, the pKi (human SSTR1) was 5.13, the pKi (human SSTR2) was under 5.02 and the pKi (human SSTR3) was under 5.06. It also gave a pEC50 [2, 3] of 8.37.
`Cc1cccnc1C(C)(C)NC(=O)[C@H]1[C@@H]2CNC[C@@H]21.Cl.Cl` [Example 25] showed a pKi (human SSTR5) of under 5.01, a half-life at 1 μM [1] of over 2.17 h and a pKi (human SSTR4) of 6.94. For the same compound, the pKi (human SSTR1) was under 5.05, the pKi (human SSTR2) was under 5.02 and the pKi (human SSTR3) was under 5.06. It also gave a pEC50 ([2]; SSTR4 agonism EC50, cAMP assay) of 7.83.
Work on `Cc1cc2cccnc2c(C(C)(C)NC(=O)[C@H]2[C@@H]3CNC[C@@H]32)n1` [Example 78] yielded a pKi (human SSTR5) of under 5.01, a half-life at 1 μM [1] of over 2.17 h and a pKi (human SSTR4) of 7.01. The pKi (human SSTR1) was 5.18, the pKi (human SSTR2) was under 5.02 and the pKi (human SSTR3) was under 5.06. The pEC50 [2, 3] was 8.49.
`CC(C)(NC(=O)[C@H]1[C@@H]2CNC[C@@H]21)c1nc2ccc(Cl)cc2[nH]1.Cl` [Example 11] gave a pKi (human SSTR5) of under 5.01, a half-life at 1 μM [1] of over 2.17 h and a pKi (human SSTR4) of 6.97. The pKi (human SSTR1) was under 5.05, the pKi (human SSTR2) was under 5.02 and the pKi (human SSTR3) was under 5.07. It also gave a pEC50 [2, 3] of 8.09.
Work on `Cc1cccn2c(C(C)(C)NC(=O)[C@H]3[C@@H]4CNC[C@@H]43)ncc12.Cl` [Example 126] yielded a pKi (human SSTR5) of under 5.01, a half-life at 1 μM [1] of over 2.17 h and a pKi (human SSTR4) of 8.52. For the same compound, the pKi (human SSTR1) was 5.18, the pKi (human SSTR2) was under 5.02 and the pKi (human SSTR3) was under 5.06. It also gave a pEC50 ([2]; SSTR4 agonism EC50, cAMP assay) of 9.40.
For `Cn1nc(C(C)(C)NC(=O)[C@H]2[C@@H]3CNC[C@@H]32)c2ccccc21` [Example 49], the pKi (human SSTR5) was under 5.01, the half-life at 1 μM [1] was over 2.17 h and the pKi (human SSTR4) was 8.35. It also gave a pKi (human SSTR1) of 5.34, a pKi (human SSTR2) of under 5.02 and a pKi (human SSTR3) of under 5.06. The pEC50 [2, 3] was 9.40.
